Results: patent publication US11718604B2, “4-amino-6-(1,3-benzodioxole)picolinates and their use as herbicides” (Dow AgroSciences LLC, priority 2018, dated 2023)

What was measured:
Format in all cases: in vivo
[1] = tested on: EPHHL: wild poinsettia (Euphorbia heterophylla); test: Post-emergent herbicidal test, wild poinsettia; settings: post-emergence, 336 h, 14 days after application, read-out: Visual Growth Reduction (%) 14 Days After Application EPHHL; for pest or weed control at 17.5 g/ha: 17.5 g ai/ha; for pest or weed control at 35 g/ha: 35 g ai/ha; for pest or weed control at 70 g/ha: 70 g ai/ha; for pest or weed control at 140 g/ha: 140 g ai/ha
How it was run: (§1)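 Scores reflect visual injury (0–100%) at 14 d post-spray on young plants treated at the 1st/2nd true leaf stage. Greenhouse held at about 23-29° C day and 22-28° C night; spray volume 187 L/ha, with solvent-blank controls.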

[2] = tested on: ABUTH: velvetleaf (Abutilon theophrasti); test: Post-emergent herbicidal test, velvetleaf; settings: post-emergence, 336 h, 14 days after application, read-out: Visual Growth Reduction (%) 14 Days After Application ABUTH; for pest or weed control at 17.5 g/ha: 17.5 g ai/ha; for pest or weed control at 35 g/ha: 35 g ai/ha; for pest or weed control at 70 g/ha: 70 g ai/ha; for pest or weed control at 140 g/ha: 140 g ai/ha
How it was run: as §1

[3] = tested on: CYPES: yellow nutsedge (Cyperus esculentus); test: Post-emergent herbicidal test, yellow nutsedge; settings: post-emergence, 336 h, 14 days after application, read-out: Visual Growth Reduction (%) 14 Days After Application CYPES; for pest or weed control at 17.5 g/ha: 17.5 g ai/ha; for pest or weed control at 35 g/ha: 35 g ai/ha; for pest or weed control at 70 g/ha: 70 g ai/ha; for pest or weed control at 140 g/ha: 140 g ai/ha
How it was run: as §1

[4] = tested on: CIRAR: Canada thistle (Cirsium arvense); test: Post-emergent herbicidal test, Canada thistle; settings: post-emergence, 336 h, 14 days after application, read-out: Visual Growth Reduction (%) 14 Days After Application CIRAR; for pest or weed control at 17.5 g/ha: 17.5 g ai/ha; for pest or weed control at 35 g/ha: 35 g ai/ha; for pest or weed control at 70 g/ha: 70 g ai/ha; for pest or weed control at 140 g/ha: 140 g ai/ha
How it was run: as §1

[5] = tested on: DIGSA: large crabgrass (Digitaria sanguinalis); test: Post-emergent herbicidal test, large crabgrass; settings: post-emergence, 336 h, 14 days after application, read-out: Visual Growth Reduction (%) 14 Days After Application DIGSA; for pest or weed control at 17.5 g/ha: 17.5 g ai/ha; for pest or weed control at 35 g/ha: 35 g ai/ha; for pest or weed control at 70 g/ha: 70 g ai/ha; for pest or weed control at 140 g/ha: 140 g ai/ha
How it was run: as §1

[6] = tested on: VIOTR: wild violet (Viola tricolor); test: Post-emergent herbicidal test, wild violet; settings: post-emergence, 336 h, 14 days after application, read-out: Visual Growth Reduction (%) 14 Days After Application VIOTR; for pest or weed control at 17.5 g/ha: 17.5 g ai/ha; for pest or weed control at 35 g/ha: 35 g ai/ha; for pest or weed control at 70 g/ha: 70 g ai/ha; for pest or weed control at 140 g/ha: 140 g ai/ha
How it was run: as §1

[7] = tested on: BRSNN: oilseed rape, canola (Brassica napus); test: Post-emergent herbicidal test, oilseed rape; settings: post-emergence, 336 h, 14 days after application, read-out: Visual Growth Reduction (%) 14 Days After Application BRSNN; for pest or weed control at 17.5 g/ha: 17.5 g ai/ha; for pest or weed control at 35 g/ha: 35 g ai/ha; for pest or weed control at 70 g/ha: 70 g ai/ha; for pest or weed control at 140 g/ha: 140 g ai/ha
How it was run: as §1

[8] = tested on: IPOHE: ivyleaf morningglory (Ipomoea hederacea); test: Post-emergent herbicidal test, ivyleaf morningglory; settings: post-emergence, 336 h, 14 days after application, read-out: Visual Growth Reduction (%) 14 Days After Application IPOHE; for pest or weed control at 17.5 g/ha: 17.5 g ai/ha; for pest or weed control at 35 g/ha: 35 g ai/ha; for pest or weed control at 70 g/ha: 70 g ai/ha; for pest or weed control at 140 g/ha: 140 g ai/ha
How it was run: as §1

[9] = tested on: SETFA: giant foxtail (Setaria faberi); test: Post-emergent herbicidal test, giant foxtail; settings: post-emergence, 336 h, 14 days after application, read-out: Visual Growth Reduction (%) 14 Days After Application SETFA; for pest or weed control at 17.5 g/ha: 17.5 g ai/ha; for pest or weed control at 35 g/ha: 35 g ai/ha; for pest or weed control at 70 g/ha: 70 g ai/ha; for pest or weed control at 140 g/ha: 140 g ai/ha
How it was run: as §1

[10] = tested on: ECHCG: barnyardgrass (Echinochloa crus-galli); test: Post-emergent herbicidal test, barnyardgrass; settings: post-emergence, 336 h, 14 days after application, read-out: Visual Growth Reduction (%) 14 Days After Application ECHCG; for pest or weed control at 17.5 g/ha: 17.5 g ai/ha; for pest or weed control at 35 g/ha: 35 g ai/ha; for pest or weed control at 70 g/ha: 70 g ai/ha; for pest or weed control at 140 g/ha: 140 g ai/ha
How it was run: as §1

[11] = tested on: SORVU: shattercane (Sorghum bicolor); test: Post-emergent herbicidal test, shattercane; settings: post-emergence, 336 h, 14 days after application, read-out: Visual Growth Reduction (%) 14 Days After Application SORVU; for pest or weed control at 17.5 g/ha: 17.5 g ai/ha; for pest or weed control at 35 g/ha: 35 g ai/ha; for pest or weed control at 70 g/ha: 70 g ai/ha; for pest or weed control at 140 g/ha: 140 g ai/ha
How it was run: as §1

Nc1c(F)c(-c2cccc3c2OC(F)(F)O3)nc(C(=O)O)c1Cl [Compound 5]
70%: pest or weed control at 35 g/ha [4]
0%: pest or weed control at 17.5 g/ha [1] | pest or weed control at 35 g/ha [1] | pest or weed control at 70 g/ha [1] | pest or weed control at 140 g/ha [1] | pest or weed control at 17.5 g/ha [3] | pest or weed control at 35 g/ha [3] | pest or weed control at 70 g/ha [3] | pest or weed control at 140 g/ha [3] | pest or weed control at 17.5 g/ha [5] | pest or weed control at 35 g/ha [5] | pest or weed control at 70 g/ha [5] | pest or weed control at 140 g/ha [5] | pest or weed control at 17.5 g/ha [6] | pest or weed control at 35 g/ha [6] | pest or weed control at 17.5 g/ha [8] | pest or weed control at 35 g/ha [8] | pest or weed control at 70 g/ha [8] | pest or weed control at 17.5 g/ha [9] | pest or weed control at 35 g/ha [9] | pest or weed control at 70 g/ha [9] | pest or weed control at 140 g/ha [9] | pest or weed control at 17.5 g/ha [10] | pest or weed control at 35 g/ha [10] | pest or weed control at 70 g/ha [10] | pest or weed control at 140 g/ha [10] | pest or weed control at 17.5 g/ha [11] | pest or weed control at 35 g/ha [11] | pest or weed control at 70 g/ha [11] | pest or weed control at 140 g/ha [11]
40%: pest or weed control at 70 g/ha [2]
80%: pest or weed control at 140 g/ha [4] | pest or weed control at 35 g/ha [7]
50%: pest or weed control at 140 g/ha [2]
95%: pest or weed control at 140 g/ha [7]
75%: pest or weed control at 70 g/ha [4] | pest or weed control at 17.5 g/ha [7]
10%: pest or weed control at 17.5 g/ha [2] | pest or weed control at 70 g/ha [6] | pest or weed control at 140 g/ha [6] | pest or weed control at 140 g/ha [8]
60%: pest or weed control at 17.5 g/ha [4]
20%: pest or weed control at 35 g/ha [2]
85%: pest or weed control at 70 g/ha [7]

Nc1c(F)c(-c2ccc(Br)c3c2OC(F)(F)O3)nc(C(=O)O)c1Cl [Compound 11]
70%: pest or weed control at 35 g/ha [2]
50%: pest or weed control at 17.5 g/ha [2]
90%: pest or weed control at 70 g/ha [4] | pest or weed control at 140 g/ha [4] | pest or weed control at 17.5 g/ha [7] | pest or weed control at 35 g/ha [7] | pest or weed control at 70 g/ha [7] | pest or weed control at 140 g/ha [7]
85%: pest or weed control at 140 g/ha [2] | pest or weed control at 35 g/ha [4]
20%: pest or weed control at 140 g/ha [6]
0%: pest or weed control at 17.5 g/ha [1] | pest or weed control at 35 g/ha [1] | pest or weed control at 70 g/ha [1] | pest or weed control at 140 g/ha [1] | pest or weed control at 17.5 g/ha [3] | pest or weed control at 35 g/ha [3] | pest or weed control at 70 g/ha [3] | pest or weed control at 140 g/ha [3] | pest or weed control at 17.5 g/ha [5] | pest or weed control at 35 g/ha [5] | pest or weed control at 70 g/ha [5] | pest or weed control at 140 g/ha [5] | pest or weed control at 17.5 g/ha [6] | pest or weed control at 35 g/ha [6] | pest or weed control at 70 g/ha [6] | pest or weed control at 17.5 g/ha [8] | pest or weed control at 35 g/ha [8] | pest or weed control at 70 g/ha [8] | pest or weed control at 140 g/ha [8] | pest or weed control at 17.5 g/ha [9] | pest or weed control at 35 g/ha [9] | pest or weed control at 70 g/ha [9] | pest or weed control at 140 g/ha [9] | pest or weed control at 17.5 g/ha [10] | pest or weed control at 35 g/ha [10] | pest or weed control at 70 g/ha [10] | pest or weed control at 140 g/ha [10] | pest or weed control at 17.5 g/ha [11] | pest or weed control at 35 g/ha [11] | pest or weed control at 70 g/ha [11]
10%: pest or weed control at 140 g/ha [11]
80%: pest or weed control at 70 g/ha [2] | pest or weed control at 17.5 g/ha [4]
